Measurements from patent US10265337B2, “Use of A3 adenosine receptor agonist in osteoarthritis treatment” (CAN-FITE BIOPHARMA LTD., priority 2005, dated 2019).

Assays:
A3AR = biological target: T1, A3AR (Rattus norvegicus, UniProt P28647); assay: Western blot of knee joint protein extracts, A3AR; assay type: in vivo; conditions: OA rats, CF101 treated vs control, FIG. 4A
T1 construct: knee joints protein extracts from control and CF101 treated animal were subjected to Western blot analysis; from tissue; host or cells: rat knee joint (OA rats)
T1 sequence (P28647 1-320): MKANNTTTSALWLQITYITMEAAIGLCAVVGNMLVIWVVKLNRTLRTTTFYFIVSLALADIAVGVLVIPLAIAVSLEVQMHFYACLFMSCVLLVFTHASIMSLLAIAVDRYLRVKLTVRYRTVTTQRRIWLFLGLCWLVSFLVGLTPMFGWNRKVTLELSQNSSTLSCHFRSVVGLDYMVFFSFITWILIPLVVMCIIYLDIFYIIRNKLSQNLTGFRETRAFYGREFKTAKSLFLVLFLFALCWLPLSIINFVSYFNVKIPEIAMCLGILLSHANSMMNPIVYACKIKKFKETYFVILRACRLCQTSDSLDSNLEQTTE
Description: (§1) To explore the fate of the A3AR and downstream key signaling proteins participating in the NF-kB and Wnt signaling pathways, knee joints protein extracts from control and CF101 treated animal were subjected to Western blot analysis.

rat FLS = assay: MTT proliferation assay, rat fibroblast like synoviocytes; assay type: cell-based; conditions: CF101 10 nM added for the last 24 hours of 72 hours, FLS from adjuvant induced arthritis rats, FIG. 1B
Experimental: The effect of IB-MECA (herein at times CF101) alone or in combination with MTX, on the proliferation of the human or rat fibroblast like synoviocytes (FLS) was tested. […] Synovia tissue from adjuvant induced arthritis rats was collected. The tissue was minced and subjected for digestion in 4 mg/ml type I collagenase and 0.25 w/v trypsin in DMEM. The mixture was shacked vigorously for 4 hours at 37°. The released cells were separated from the supernatant by centrifugation and cultured in DMEM containing 15% FCS, 2 mM glutamine, 100 U/ml penicillin, 100 μg/ml streptomycin in a 37° C., 5% CO2 incubator. After overnight incubation the nonadherent cells were removed. The adherent cells (FLS) were sub-cultured at a 1:2 ratio, and the cells from passages 4 through 10 were used in the experiments. The effect of CF101 alone or in combination with MTX, on the proliferation of the FLS was tested utilizing an MTT assay. The cells (5×10^4/ml cells) were incubated in 96-well microtiter plates for 72 hours in the growth medium. At the last 24 hours CF101 (10 nM) were added to the cultures.

[1] = oral, healthy young men; cited from earlier work
PI3K = assay: Western blot of knee joint protein extracts, PI3K; assay type: in vivo, rat; conditions: OA rats, CF101 treated vs control, FIG. 4B
Description: as §1

IKK = assay: Western blot of knee joint protein extracts, IKK; assay type: in vivo, rat; conditions: OA rats, CF101 treated vs control, FIG. 4C
Description: as §1

[2] = tested on: human fibroblast like synoviocytes (FLS); assay: MTT proliferation assay, human fibroblast like synoviocytes; assay type: cell-based; conditions: CF101 10 nM added for the last 24 hours of 72 hours, FLS from OA patients, FIG. 1A
Experimental: The effect of IB-MECA (herein at times CF101) alone or in combination with MTX, on the proliferation of the human or rat fibroblast like synoviocytes (FLS) was tested. […] Human synovial fluid samples were collected from osteoarthritis (OA) patients undergoing paracenthesis. The fluid was centrifuged and the supernatant removed. The cells were resuspended in DMEM containing type I collagenase (4 mg/ml), for 2 hours, and shacked vigorously at 37°. The released cells in the supernatant were harvested by centrifugation and were cultured in DMEM containing 10% FBS, 2 mM glutamine, 100 U/ml penicillin, 100 μg/ml streptomycin, 1% non essential amino acids, 1% sodium pyruvate and […] HEPES buffer in a 37° C., 5% CO2 incubator. After overnight culture, non-adherent cells were removed. The adherent cells (FLS) were subcultured at a 1:2 ratio, and the cells from passages 4 through 10 were used in the experiments. The effect of CF101 alone or in combination with MTX, on the proliferation of the FLS was tested utilizing an MTT assay. The cells (5×10^4/ml cells) were incubated in 96-well microtiter plates for 72 hours in the growth medium. At the last 24 hours CF101 (10 nM) were added to the cultures.

[3] = tested on: mono-idoacetate (MIA) experimental osteoarthritis (OA); assay: MIA experimental osteoarthritis model, knee diameter; assay type: in vivo, rat; conditions: male Wistar rats; CF101 100 μg/kg PO twice daily from day 7 post-injection; vs control group, P=9.48317E-06; FIG. 2
Experimental: (§2) In the following study the effect of IB-MECA (herein, at times, CF101) on the development of experimental osteoarthritis (OA) was determined. In this study the mono-idoacetate (MIA) experimental model was utilized. The MIA is a rat experimental model that rapidly reproduces the clinical and pathological characteristic of OA. […] Infra-articular injection of MIA induces chondrocyte death in the articular cartilage of rodent. Specifically, male Wistar rats (˜200 gr) (Harlan laboratories) were anesthetized with Isoflurane and the right leg was flexed at a 90° angle of the knee. The MIA was dissolved in physiological saline and 2 mg, at a volume of 50 μL were injected intra-articular of the right foot of each animal, using a 27-gauge, 0.5-inch needle. Treatment with CF101, 100 μg/kg, Per Oz (PO), twice daily was initiated at day 7 post-injection. Knee diameter was measured using calibrated digital caliper adapted by reinforcing the tips for knee diameter measure. The results presented in FIG. 2 show the delta between the diameter of the MIA injected knee (Right knee) and the diameter of the MIA un-injected knee (Left knee) within the same animal. The group of the control is compared to the CF101 treated group (5 animals in each group).

[4] = tested on: mono-idoacetate (MIA) experimental osteoarthritis (OA); assay: MIA experimental osteoarthritis model, roentgenographic examination of knees; assay type: in vivo, rat; conditions: MIA rats; CF101 100 μg/kg PO twice daily; FIGS. 3A-3D
Experimental: as §2, with “post-injection.” for “post-injection. Knee diameter was measured using calibrated digital caliper adapted by reinforcing the tips for knee diameter measure. The results presented in FIG. 2 show the delta between the diameter of the MIA injected knee (Right knee) and the diameter of the MIA un-injected knee (Left knee) within the same animal. The group of the control is compared to the CF101 treated group (5 animals in each group).”

GSK-3β = assay: Western blot of knee joint protein extracts, GSK-3β; assay type: in vivo, rat; conditions: OA rats, CF101 treated vs control, FIG. 4E
Description: as §1

CNC(=O)[C@H]1O[C@@H](n2cnc3c(NCc4cccc(I)c4)ncnc32)[C@H](O)[C@@H]1O [CF101, 1-deoxy-1-{6-[({3-iodophenyl}methyl)amino]-9H-purine-9-yl}-N-methyl-β-D-ribofuranuronamide]
A3AR expression level in knee joints (A3AR): down-regulated | effect on the proliferation of rat FLS (rat FLS): marked inhibitory effect | half life in human plasma [1]: 8 to 10 h | PI3K expression level in knee joints (PI3K): down-regulation | IKK expression level in knee joints (IKK): down-regulation | effect on the proliferation of human FLS [2]: marked inhibitory effect | development of tissue swelling (delta between diameter of MIA injected and un-injected knee) [3]: significantly inhibited | roentgenographic examination of knees [4]: normal tibial epiphysial line without sclerosis | GSK-3β expression level in knee joints (GSK-3β): up-regulated
